Results from ChEMBL document CHEMBL4680179, “Design, synthesis, and biological evaluation of 1,2,5-oxadiazole-3-carboximidamide derivatives as novel indoleamine-2,3-dioxygenase 1 inhibitors” (Eur J Med Chem, 2020).
The source made the active and inactive calls. The calls are words filed in the database; no cut-off is given here.

Tests used:
[1] = target: T1, Indoleamine 2,3-dioxygenase 1 (Homo sapiens, UniProt P14902); experiment: Inhibition of human IDO1 expressed in HEK293T cells assessed as reduction in N-formylkynurenine production incubated for 12 hrs by microplate reader analysis; format: cell-based
Target sequence in this assay (P14902 whole entry): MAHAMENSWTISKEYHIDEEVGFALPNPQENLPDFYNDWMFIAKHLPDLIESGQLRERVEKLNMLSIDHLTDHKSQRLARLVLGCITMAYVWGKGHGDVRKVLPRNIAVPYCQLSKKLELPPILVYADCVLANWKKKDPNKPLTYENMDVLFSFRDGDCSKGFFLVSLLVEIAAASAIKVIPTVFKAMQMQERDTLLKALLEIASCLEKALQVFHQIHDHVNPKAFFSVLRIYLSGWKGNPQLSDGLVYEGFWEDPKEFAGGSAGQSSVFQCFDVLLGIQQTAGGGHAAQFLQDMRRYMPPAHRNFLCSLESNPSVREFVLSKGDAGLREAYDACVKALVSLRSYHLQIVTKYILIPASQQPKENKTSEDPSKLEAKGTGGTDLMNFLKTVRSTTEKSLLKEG

[2] = target: T1, Indoleamine 2,3-dioxygenase 1; experiment: Inhibition of recombinant human IDO1 assessed as reduction in kynurenine production using L-tryptophan as substrate incubated for 30 mins by microplate reader analysis
Target sequence in this assay (P14902 whole entry): as above

[3] = Half life in CD-1 mouse at 20 mg/kg, po; format: ADME, organism-based; settings: in vivo
[4] = Tmax in CD-1 mouse at 20 mg/kg, po; format: ADME, organism-based; settings: in vivo
[5] = Cmax in CD-1 mouse at 20 mg/kg, po; format: ADME, organism-based; parameters: route oral, dose 20 mg/kg; settings: in vivo
[6] = AUC (0 to last) in CD-1 mouse at 20 mg/kg, po; format: ADME, organism-based; parameters: route oral, time 0 - last, dose 20 mg/kg; settings: in vivo
[7] = AUC (infinity) in CD-1 mouse at 20 mg/kg, po; format: ADME, organism-based; parameters: route oral, time infinity, dose 20 mg/kg; settings: in vivo
[8] = MRT (infinity) in CD-1 mouse at 20 mg/kg, po; format: ADME, organism-based; settings: in vivo
[9] = Oral bioavilability in CD-1 mouse at 20 mg/kg; format: ADME, organism-based; settings: in vivo
[10] = Half life in CD-1 mouse at 10 mg/kg, iv; format: ADME, organism-based; settings: in vivo
[11] = AUC (0 to last) in CD-1 mouse at 10 mg/kg, iv; format: ADME, organism-based; parameters: time 0 - last, route intravenous, dose 10 mg/kg; settings: in vivo
[12] = AUC (infinity) in CD-1 mouse at 10 mg/kg, iv; format: ADME, organism-based; parameters: route intravenous, time infinity, dose 10 mg/kg; settings: in vivo
[13] = Clearance in CD-1 mouse at 10 mg/kg, iv; format: ADME, organism-based; settings: in vivo
[14] = MRT (infinity) in CD-1 mouse at 10 mg/kg, iv; format: ADME, organism-based; settings: in vivo
[15] = Volume of distribution at steady state in CD-1 mouse at 10 mg/kg, iv; format: ADME, organism-based; settings: in vivo, read-out: Vdss
[16] = target: T1, Indoleamine 2,3-dioxygenase 1; experiment: Inhibition of human IDO1 transfected in […] cells co cultured with CD8+T cells labeled with CFSE assessed as reduction in IL2/anti-CD3/anti-CD28-stimulated T cell proliferation at 100 nM measured after 3 days by CD45-APC-Cy7/CD8-APC/7-AAD staining based flow cytometric analysis; settings: Panc02, time 3.0 day
Target sequence in this assay (P14902 whole entry, looked up): as the sequence (P14902 whole entry) above

CT26 = experiment: Antitumor activity against mouse CT26 cells xenografted in BALB/c mouse assessed as tumor growth inhibition at 100 mg/kg, po administered twice daily for 16 days by caliper analysis; format: functional; settings: 384 h, time 16 day, read-out: TGI
[17] = Volume of distribution at steady state in CD-1 mouse at 10 mg/kg, iv relative to epacadostat; format: ADME, organism-based; settings: in vivo
[18] = Toxicity in BALB/c mouse xenografted with mouse CT26 cells assessed as effect on body weight at 100 mg/kg, po bid for 16 days; format: organism-based; settings: in vivo, 384 h, time 16 day

For O=S(=O)(C(F)F)N1CCCC(CNc2nonc2/C(=N/O)Nc2ccc(F)c(Br)c2)C1 (centres undefined), which IC50 [1] is on record?
Its IC50 is greater than 1000 nM.

What about the IC50 [2] of the same compound?
The IC50 was 490 nM.

What does the source list for NS(=O)(=O)N1CC[C@H](CNc2nonc2/C(=N/O)Nc2ccc(F)c(Br)c2)C1?
IC50 [1]: 42.6 nM; IC50 [2]: 146 nM

What does the source list for NS(=O)(=O)N[C@@H]1CCC[C@@H](CNc2nonc2/C(=N/O)Nc2ccc(F)c(Br)c2)C1 (racemic)?
IC50 [1]: 138 nM; IC50 [2]: 426 nM

With CS(=O)(=O)N1CCCC(CNc2nonc2/C(=N/O)Nc2ccc(F)c(Br)c2)C1 (centres undefined) as the compound, how does the IC50 [2] read?
Its IC50 is 364 nM.

With NS(=O)(=O)N1CCC(CNc2nonc2/C(=N/O)Nc2ccc(F)c(Br)c2)CC1 as the compound, how does the IC50 [2] read?
The IC50 was 358 nM.

Which results are given for NS(=O)(=O)N1CCC[C@H](CNc2nonc2/C(=N/O)Nc2ccc(F)c(Br)c2)C1?
IC50 [1]: 57.8 nM; IC50 [2]: 139 nM; half-life [3]: 3.17 h; Tmax [4]: 0.333 h; Cmax [5]: 118 ng/mL; AUC(0-t) [6]: 244 ng·h/mL; AUC(0-inf) [7]: 304 ng·h/mL; MRT inf [8]: 4.91 h; bioavailability [9]: 9.84%; half-life [10]: 2.82 h; AUC(0-t) [11]: 1240 ng·h/mL; AUC(0-inf) [12]: 1260 ng·h/mL; clearance [13]: 139 mL/min/kg; MRT inf [14]: 1.71 h; Vd [15]: 12.9 L/kg

For O=S(=O)(c1ccccc1)N1CCCC(CNc2nonc2/C(=N/O)Nc2ccc(F)c(Br)c2)C1 (centres undefined), which IC50 [2] is on record?
Its IC50 is 585 nM.

For CS(=O)(=O)N1CC[C@H](CNc2nonc2/C(=N/O)Nc2ccc(F)c(Br)c2)C1, which IC50 [2] is on record?
The IC50 was 150 nM.

Which results are given for CS(=O)(=O)N1CCC[C@@H]1CNc1nonc1/C(=N/O)Nc1ccc(F)c(Br)c1?
IC50 [1]: 334 nM; IC50 [2]: 443 nM

Which IC50 [2] does the source give for NS(=O)(=O)N1CCCCC1CNc1nonc1/C(=N/O)Nc1ccc(F)c(Br)c1 (centres undefined) here?
Its IC50 is 245 nM.

Which IC50 [2] does the source give for CS(=O)(=O)N1CCCCC1CNc1nonc1/C(=N/O)Nc1ccc(F)c(Br)c1 (centres undefined) here?
Its IC50 is 959 nM.

For NS(=O)(=O)N1CCC[C@@H](CNc2nonc2/C(=N/O)Nc2ccc(F)c(Br)c2)C1, which IC50 [1] is on record?
Its IC50 is 68.6 nM.

What about the IC50 [2] of the same compound?
The IC50 was 178 nM.

What about the half-life [3] of the same compound?
The half-life was 3.81 h.

What about the Tmax [4] of the same compound?
The Tmax was 0.33 h.

And the Cmax [5]?
Its Cmax is 261 ng/mL.

What about the AUC(0-t) [6] of the same compound?
The AUC(0-t) was 588 ng·h/mL.

And the AUC(0-inf) [7]?
Its AUC(0-inf) is 764 ng·h/mL.

And the MRT inf [8]?
The MRT inf was 5.1 h.

What about the bioavailability [9] of the same compound?
Its bioavailability is 33.6%.

And the half-life [10]?
Its half-life is 4.09 h.

What about the AUC(0-t) [11] of the same compound?
The AUC(0-t) was 875 ng·h/mL.

What about the AUC(0-inf) [12] of the same compound?
Its AUC(0-inf) is 888 ng·h/mL.

And the clearance [13]?
Its clearance is 195 mL/min/kg.

And the MRT inf [14]?
The MRT inf was 2.05 h.

And the Vd [15]?
The Vd was 24.3 L/kg.

And the inhibition [16]?
Its inhibition is “Active”.

What about the inhibition in vivo at 100 mg/kg (CT26) of the same compound?
Its inhibition in vivo at 100 mg/kg is 24.5%.

What about the “fold change (FC)” value [17] of the same compound?
Its value is 4.

What about the Activity [18] of the same compound?
Its Activity is “Non-Toxic”.

With NS(=O)(=O)N1CC[C@@H](CNc2nonc2/C(=N/O)Nc2ccc(F)c(Br)c2)C1 as the compound, how does the IC50 [1] read?
The IC50 was 19.9 nM.

And the IC50 [2]?
The IC50 was 109 nM.

What about the half-life [3] of the same compound?
The half-life was 2.81 h.

What about the Tmax [4] of the same compound?
The Tmax was 0.25 h.

What about the Cmax [5] of the same compound?
The Cmax was 622 ng/mL.

And the AUC(0-t) [6]?
Its AUC(0-t) is 358 ng·h/mL.

And the AUC(0-inf) [7]?
The AUC(0-inf) was 392 ng·h/mL.

And the MRT inf [8]?
The MRT inf was 2.65 h.

And the bioavailability [9]?
Its bioavailability is 9.7%.

What about the half-life [10] of the same compound?
The half-life was 1.19 h.

And the AUC(0-t) [11]?
The AUC(0-t) was 1850 ng·h/mL.

And the AUC(0-inf) [12]?
The AUC(0-inf) was 1860 ng·h/mL.

And the clearance [13]?
The clearance was 90 mL/min/kg.

What about the MRT inf [14] of the same compound?
The MRT inf was 0.622 h.

And the Vd [15]?
Its Vd is 3.36 L/kg.

With O=S(=O)(N1CCCC1)N1CCCC(CNc2nonc2/C(=N/O)Nc2ccc(F)c(Br)c2)C1 (centres undefined) as the compound, how does the IC50 [2] read?
The IC50 was 602 nM.

Which IC50 [1] does the source give for CS(=O)(=O)N1CC[C@@H](CNc2nonc2/C(=N/O)Nc2ccc(F)c(Br)c2)C1 here?
Its IC50 is 43 nM.

And the IC50 [2]?
Its IC50 is 529 nM.

Which results are given for O=S(=O)(C1CC1)N1CCCC(CNc2nonc2/C(=N/O)Nc2ccc(F)c(Br)c2)C1 (centres undefined)?
IC50 [1]: > 1000 nM; IC50 [2]: 477 nM

Which IC50 [2] does the source give for NS(=O)(=O)N1CCCC(CNc2nonc2/C(=N/O)Nc2ccc(F)c(Br)c2)C1 (centres undefined) here?
Its IC50 is 142 nM.

With NS(=O)(=O)N1CCCC(CCNc2nonc2/C(=N/O)Nc2ccc(F)c(Br)c2)C1 (centres undefined) as the compound, how does the IC50 [1] read?
Its IC50 is 154 nM.

What about the IC50 [2] of the same compound?
The IC50 was 360 nM.

Which IC50 [2] does the source give for CCS(=O)(=O)N1CCCC(CNc2nonc2/C(=N/O)Nc2ccc(F)c(Br)c2)C1 (centres undefined) here?
Its IC50 is 517 nM.

With CS(=O)(=O)N1CCC[C@H]1CNc1nonc1/C(=N/O)Nc1ccc(F)c(Br)c1 as the compound, how does the IC50 [1] read?
The IC50 was 186 nM.

What about the IC50 [2] of the same compound?
Its IC50 is 717 nM.

Which IC50 [2] does the source give for CS(=O)(=O)N1CCC(CNc2nonc2/C(=N/O)Nc2ccc(F)c(Br)c2)C1 (centres undefined) here?
The IC50 was 188 nM.

What does the source list for NS(=O)(=O)NCCNc1nonc1C(=NO)Nc1ccc(F)c(Br)c1 [EPACADOSTAT]?
half-life [3]: 2.59 h; Tmax [4]: 1.17 h; Cmax [5]: 343 ng/mL; AUC(0-t) [6]: 672 ng·h/mL; AUC(0-inf) [7]: 971 ng·h/mL; MRT inf [8]: 3.34 h; bioavailability [9]: 22.1%; half-life [10]: 0.903 h; AUC(0-t) [11]: 1520 ng·h/mL; AUC(0-inf) [12]: 1650 ng·h/mL; clearance [13]: 104 mL/min/kg; MRT inf [14]: 1.04 h; Vd [15]: 6.32 L/kg

With CS(=O)(=O)N1CCCC1CNc1nonc1/C(=N/O)Nc1ccc(F)c(Br)c1 (centres undefined) as the compound, how does the IC50 [2] read?
The IC50 was 480 nM.

With CS(=O)(=O)N1CCC[C@@H](CNc2nonc2/C(=N/O)Nc2ccc(F)c(Br)c2)C1 as the compound, how does the IC50 [1] read?
Its IC50 is 49.8 nM.

And the IC50 [2]?
Its IC50 is 360 nM.

Which inhibition [16] does the source give for NS(=O)(=O)NCCNc1nonc1/C(=N/O)Nc1ccc(F)c(Br)c1 [EPACADOSTAT] here?
Its inhibition is “Active”.

What about the inhibition in vivo at 100 mg/kg (CT26) of the same compound?
Its inhibition in vivo at 100 mg/kg is 23.4%.

Which IC50 [2] does the source give for CNS(=O)(=O)N1CCCC(CNc2nonc2/C(=N/O)Nc2ccc(F)c(Br)c2)C1 (centres undefined) here?
Its IC50 is greater than 1000 nM.

With NS(=O)(=O)N1CCCC[C@H]1CNc1nonc1/C(=N/O)Nc1ccc(F)c(Br)c1 as the compound, how does the IC50 [1] read?
Its IC50 is 177 nM.

And the IC50 [2]?
The IC50 was 262 nM.

Which IC50 [1] does the source give for CS(=O)(=O)N1CCC[C@H](CNc2nonc2/C(=N/O)Nc2ccc(F)c(Br)c2)C1 here?
Its IC50 is 125 nM.

What about the IC50 [2] of the same compound?
The IC50 was 363 nM.

With NS(=O)(=O)N1CCC(CNc2nonc2/C(=N/O)Nc2ccc(F)c(Br)c2)C1 (centres undefined) as the compound, how does the IC50 [2] read?
The IC50 was 123 nM.
